Earlier results as cited in patent publication US20130035357A1, “Compositions and Methods for Preventing Joint Destruction in Osteoarthritis” (TRUSTEES OF DARTMOUTH COLLEGE, priority 2010, published 2013).

Key:
[1] = test system: retinoid acid receptors (RARs; e.g., RARα, RARβ, and RARγ)
[2] = test system: RXRα, RXRβ, and RXRγ receptors
[3] = test system: MMP-13
[4] = test system: MMP-1
[5] = test system: IL-1β-stimulated SW-1353 cells
[6] = human chondrocytic cells in vitro
[7] = in vitro, by decreasing the transcription rate of the gene

Row | SMILES | activity to bind retinoid acid receptors and to transactivate the related RAR genes [1] | potency as an RXR agonist relative to bexarotene ([2]; compared with bexarotene) | potency as an agonist across RXRα, RXRβ, and RXRγ receptors ([2]; comparison between the three RXR subtypes) | production of mRNA and protein for MMP-13 [3, 6] | inhibition of proinflammatory cytokine-induced upregulation of MMP-13 [3, 7] | production of mRNA and protein for MMP-1 [4, 6] | inhibition of proinflammatory cytokine-induced upregulation of MMP-1 [4, 7] | breakdown of collagen by the cells [5, 6] | ability of IL-1β-stimulated SW-1353 cells to degrade collagen matrix ([5]; in vitro)
1 | C=C(c1ccc(C(=O)O)cc1)c1cc2c(cc1C)C(C)(C)CCC2(C)C [Bexarotene, bexarotene] | negligible activity | – | – | – | – | – | – | – | –
2 | Cc1cc2c(cc1C1(c3ccc(C(=O)O)cn3)CC1)C(C)(C)CCC2(C)C [LG268] | – | almost an order of magnitude more potent than bexarotene | equal potency | inhibit | inhibit | inhibit | inhibit | prevented breakdown of collagen | blunt
